Reference: article PMC7522982, “PKIS deep dive yields a chemical starting point for dark kinases and a cell active BRSK2 inhibitor” (Scientific Reports, 2020)

Columns and labels:
[1] = target: PDGFRB (Homo sapiens, UniProt P09619); assay: DiscoverX scanMAX competition binding assay; set-up: purchased Eurofins DiscoverX (scanMAX) / Eurofins enzymatic assays
Text: (§1) Based on its narrow profile when tested in the combined Nanosyn and TSA panels, GW296115 was included in the recently released Kinase Chemogenomic Set (KCGS)[15]. All of the data presented in the Introduction section was collected prior to the inclusion of GW296115 in KCGS and everything that follows has been subsequently generated. Since its inclusion in PKIS and more recently KCGS, we have carried out a broader round of screening at DiscoverX. This profiling data has not been previously released and is reported here for the first time. GW296115 was profiled against 403 wild type human kinases at 1 μM using the DiscoverX scanMAX screening platform, which employs an active site-directed competition binding assay to quantitatively measure interactions between test compounds and kinases, [16]. GW296115 inhibited 25 kinases > 90% at 1 μM, resulting in a selectivity index (S10) of 0.062 at 1 μM (Table S2, Fig. 1C)[17].
(§2) The scanMAX assays were performed at Eurofins DiscoverX Corporation as previously described.

[2] = target: MAP3K9/MLK1 (Homo sapiens, UniProt P80192); assay: DiscoverX scanMAX competition binding assay; set-up: purchased Eurofins DiscoverX (scanMAX) / Eurofins enzymatic assays
Text: as §1, §2

[3] = target: MAP3K11/MLK3 (Homo sapiens, UniProt Q16584); assay: DiscoverX scanMAX competition binding assay; set-up: purchased Eurofins DiscoverX (scanMAX) / Eurofins enzymatic assays
Text: as §1, §2

[4] = target: MYLK/MLCK/smMLCK (Homo sapiens, UniProt Q15746); assay: DiscoverX scanMAX competition binding assay; set-up: purchased Eurofins DiscoverX (scanMAX) / Eurofins enzymatic assays
Text: as §1, §2

[5] = target: LRRK2 (Homo sapiens, UniProt Q5S007); assay: DiscoverX scanMAX competition binding assay; set-up: purchased Eurofins DiscoverX (scanMAX) / Eurofins enzymatic assays
Text: as §1, §2

[6] = target: DAPK2 (Homo sapiens, UniProt Q9UIK4); assay: DiscoverX scanMAX competition binding assay; set-up: purchased Eurofins DiscoverX (scanMAX) / Eurofins enzymatic assays
Text: as §1, §2

[7] = target: AURKC (Homo sapiens, UniProt Q9UQB9); assay: DiscoverX scanMAX competition binding assay; set-up: purchased Eurofins DiscoverX (scanMAX) / Eurofins enzymatic assays
Text: as §1, §2

[8] = target: TNIK (Homo sapiens, UniProt Q9UKE5); assay: DiscoverX scanMAX competition binding assay; set-up: purchased Eurofins DiscoverX (scanMAX) / Eurofins enzymatic assays
Text: as §1, §2

[9] = target: RPS6KA6/RSK4 (Homo sapiens, UniProt Q9UK32); assay: DiscoverX scanMAX competition binding assay; set-up: purchased Eurofins DiscoverX (scanMAX) / Eurofins enzymatic assays
Text: as §1, §2

[10] = target: MINK1/MINK (Homo sapiens, UniProt Q8N4C8); assay: DiscoverX scanMAX competition binding assay; set-up: purchased Eurofins DiscoverX (scanMAX) / Eurofins enzymatic assays
Text: as §1, §2

[11] = target: T1, STK17B/DRAK2 (Homo sapiens, UniProt O94768); assay: DiscoverX scanMAX competition binding assay; set-up: purchased Eurofins DiscoverX (scanMAX) / Eurofins enzymatic assays
T1 sequence (O94768 1-372): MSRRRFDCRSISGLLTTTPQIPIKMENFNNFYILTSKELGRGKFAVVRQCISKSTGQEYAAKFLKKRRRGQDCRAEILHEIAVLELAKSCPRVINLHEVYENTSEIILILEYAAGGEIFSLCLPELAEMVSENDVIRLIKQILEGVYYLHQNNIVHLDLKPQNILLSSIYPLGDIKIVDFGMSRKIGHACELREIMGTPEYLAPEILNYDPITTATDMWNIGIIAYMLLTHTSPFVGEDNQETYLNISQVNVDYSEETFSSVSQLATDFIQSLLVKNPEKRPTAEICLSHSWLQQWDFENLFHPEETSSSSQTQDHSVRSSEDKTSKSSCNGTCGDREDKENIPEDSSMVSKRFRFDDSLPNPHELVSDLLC
Text: as §1, §2

[12] = target: T2, BRSK2 (Homo sapiens, UniProt Q8IWQ3); set-up: purchased Eurofins DiscoverX Corporation; method as in earlier work; conditions: cited from earlier work
T2 sequence (Q8IWQ3 1-736): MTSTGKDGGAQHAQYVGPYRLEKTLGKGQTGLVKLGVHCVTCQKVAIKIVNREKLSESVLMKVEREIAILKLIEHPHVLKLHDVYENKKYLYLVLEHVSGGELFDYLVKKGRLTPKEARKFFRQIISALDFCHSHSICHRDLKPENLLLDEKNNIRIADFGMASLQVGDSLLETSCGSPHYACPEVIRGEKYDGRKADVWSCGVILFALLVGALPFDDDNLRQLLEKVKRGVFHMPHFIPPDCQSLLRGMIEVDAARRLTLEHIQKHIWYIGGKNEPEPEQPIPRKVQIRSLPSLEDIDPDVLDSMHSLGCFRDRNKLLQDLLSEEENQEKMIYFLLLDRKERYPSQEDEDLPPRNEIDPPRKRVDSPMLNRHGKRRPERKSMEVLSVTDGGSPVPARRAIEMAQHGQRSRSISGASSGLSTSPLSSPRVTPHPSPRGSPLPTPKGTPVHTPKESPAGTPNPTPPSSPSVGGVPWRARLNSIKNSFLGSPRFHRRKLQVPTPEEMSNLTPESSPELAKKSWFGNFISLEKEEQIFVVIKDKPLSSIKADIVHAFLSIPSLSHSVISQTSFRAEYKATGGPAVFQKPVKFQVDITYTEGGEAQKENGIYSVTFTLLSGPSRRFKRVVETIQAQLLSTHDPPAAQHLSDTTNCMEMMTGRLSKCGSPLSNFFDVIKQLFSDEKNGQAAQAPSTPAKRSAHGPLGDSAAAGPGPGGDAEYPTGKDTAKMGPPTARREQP

MAP3K9/MLK1, sequence (P80192 whole entry): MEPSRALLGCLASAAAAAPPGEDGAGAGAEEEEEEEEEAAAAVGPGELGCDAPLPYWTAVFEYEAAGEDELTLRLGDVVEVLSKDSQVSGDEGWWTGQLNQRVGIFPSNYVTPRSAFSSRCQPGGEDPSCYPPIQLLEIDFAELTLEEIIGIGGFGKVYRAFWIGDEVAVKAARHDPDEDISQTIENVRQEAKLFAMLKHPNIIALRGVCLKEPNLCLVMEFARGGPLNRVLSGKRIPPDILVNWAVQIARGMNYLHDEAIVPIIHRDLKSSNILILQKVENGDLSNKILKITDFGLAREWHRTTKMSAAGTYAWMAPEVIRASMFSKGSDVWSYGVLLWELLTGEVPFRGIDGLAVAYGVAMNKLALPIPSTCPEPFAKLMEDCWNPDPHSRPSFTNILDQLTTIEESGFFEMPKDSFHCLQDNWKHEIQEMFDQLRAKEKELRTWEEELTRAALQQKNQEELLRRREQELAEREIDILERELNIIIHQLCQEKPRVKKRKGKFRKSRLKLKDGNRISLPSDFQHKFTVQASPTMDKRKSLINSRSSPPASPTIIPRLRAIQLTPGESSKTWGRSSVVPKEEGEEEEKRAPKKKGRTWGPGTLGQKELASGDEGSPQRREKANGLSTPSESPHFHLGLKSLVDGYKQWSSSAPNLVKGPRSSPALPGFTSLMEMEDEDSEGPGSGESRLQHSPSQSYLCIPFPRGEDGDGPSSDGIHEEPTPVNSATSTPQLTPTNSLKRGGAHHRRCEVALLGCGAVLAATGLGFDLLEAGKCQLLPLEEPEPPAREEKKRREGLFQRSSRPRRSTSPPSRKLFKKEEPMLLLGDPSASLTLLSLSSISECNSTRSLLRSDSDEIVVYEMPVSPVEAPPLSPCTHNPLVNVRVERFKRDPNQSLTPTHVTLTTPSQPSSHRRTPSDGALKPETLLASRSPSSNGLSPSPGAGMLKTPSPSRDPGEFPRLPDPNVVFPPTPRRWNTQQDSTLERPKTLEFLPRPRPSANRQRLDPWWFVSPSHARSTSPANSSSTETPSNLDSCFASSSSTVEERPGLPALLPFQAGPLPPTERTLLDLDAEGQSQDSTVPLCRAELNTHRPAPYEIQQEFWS
TNIK, sequence (Q9UKE5 whole entry): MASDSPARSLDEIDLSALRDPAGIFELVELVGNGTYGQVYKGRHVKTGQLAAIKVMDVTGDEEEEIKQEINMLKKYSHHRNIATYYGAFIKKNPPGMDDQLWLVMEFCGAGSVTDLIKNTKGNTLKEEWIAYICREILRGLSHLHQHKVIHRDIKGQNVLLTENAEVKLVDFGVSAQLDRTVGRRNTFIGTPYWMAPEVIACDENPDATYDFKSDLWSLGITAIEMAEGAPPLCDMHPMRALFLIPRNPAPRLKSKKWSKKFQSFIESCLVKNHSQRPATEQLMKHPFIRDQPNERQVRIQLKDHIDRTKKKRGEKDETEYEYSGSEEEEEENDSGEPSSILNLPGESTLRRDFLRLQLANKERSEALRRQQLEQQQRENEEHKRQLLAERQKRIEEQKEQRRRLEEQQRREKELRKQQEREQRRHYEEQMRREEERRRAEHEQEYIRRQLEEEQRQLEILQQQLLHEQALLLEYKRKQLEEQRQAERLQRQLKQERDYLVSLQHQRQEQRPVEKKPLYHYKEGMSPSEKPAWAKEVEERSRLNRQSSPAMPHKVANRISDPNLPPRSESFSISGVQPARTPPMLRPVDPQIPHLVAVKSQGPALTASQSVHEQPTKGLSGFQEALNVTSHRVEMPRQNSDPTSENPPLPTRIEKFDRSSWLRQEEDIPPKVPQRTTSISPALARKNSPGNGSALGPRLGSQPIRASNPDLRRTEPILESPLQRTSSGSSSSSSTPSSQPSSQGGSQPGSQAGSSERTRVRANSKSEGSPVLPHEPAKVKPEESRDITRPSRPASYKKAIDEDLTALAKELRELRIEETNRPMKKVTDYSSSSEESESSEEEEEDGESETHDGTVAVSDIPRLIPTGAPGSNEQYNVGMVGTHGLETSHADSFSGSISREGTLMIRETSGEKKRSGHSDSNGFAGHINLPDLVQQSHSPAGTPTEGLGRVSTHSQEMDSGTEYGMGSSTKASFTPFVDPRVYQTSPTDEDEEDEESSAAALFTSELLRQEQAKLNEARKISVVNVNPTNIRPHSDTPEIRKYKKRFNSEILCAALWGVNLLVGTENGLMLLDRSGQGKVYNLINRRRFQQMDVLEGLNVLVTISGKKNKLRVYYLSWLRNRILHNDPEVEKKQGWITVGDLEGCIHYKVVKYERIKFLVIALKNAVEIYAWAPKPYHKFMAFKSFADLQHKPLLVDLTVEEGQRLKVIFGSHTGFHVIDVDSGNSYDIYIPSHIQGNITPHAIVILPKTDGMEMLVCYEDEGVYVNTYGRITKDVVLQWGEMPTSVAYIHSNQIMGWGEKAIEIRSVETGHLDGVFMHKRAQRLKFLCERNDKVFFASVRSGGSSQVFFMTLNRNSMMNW
AURKC, sequence (Q9UQB9 whole entry): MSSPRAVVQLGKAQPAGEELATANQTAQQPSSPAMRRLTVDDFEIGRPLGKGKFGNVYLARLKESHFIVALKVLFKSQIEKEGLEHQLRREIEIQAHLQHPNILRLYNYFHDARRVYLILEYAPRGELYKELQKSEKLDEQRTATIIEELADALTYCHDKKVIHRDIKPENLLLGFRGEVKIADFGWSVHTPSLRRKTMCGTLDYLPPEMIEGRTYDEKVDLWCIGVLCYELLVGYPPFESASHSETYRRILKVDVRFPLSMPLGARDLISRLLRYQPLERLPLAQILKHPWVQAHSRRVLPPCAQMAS
PDGFRB, sequence (P09619 33-1106): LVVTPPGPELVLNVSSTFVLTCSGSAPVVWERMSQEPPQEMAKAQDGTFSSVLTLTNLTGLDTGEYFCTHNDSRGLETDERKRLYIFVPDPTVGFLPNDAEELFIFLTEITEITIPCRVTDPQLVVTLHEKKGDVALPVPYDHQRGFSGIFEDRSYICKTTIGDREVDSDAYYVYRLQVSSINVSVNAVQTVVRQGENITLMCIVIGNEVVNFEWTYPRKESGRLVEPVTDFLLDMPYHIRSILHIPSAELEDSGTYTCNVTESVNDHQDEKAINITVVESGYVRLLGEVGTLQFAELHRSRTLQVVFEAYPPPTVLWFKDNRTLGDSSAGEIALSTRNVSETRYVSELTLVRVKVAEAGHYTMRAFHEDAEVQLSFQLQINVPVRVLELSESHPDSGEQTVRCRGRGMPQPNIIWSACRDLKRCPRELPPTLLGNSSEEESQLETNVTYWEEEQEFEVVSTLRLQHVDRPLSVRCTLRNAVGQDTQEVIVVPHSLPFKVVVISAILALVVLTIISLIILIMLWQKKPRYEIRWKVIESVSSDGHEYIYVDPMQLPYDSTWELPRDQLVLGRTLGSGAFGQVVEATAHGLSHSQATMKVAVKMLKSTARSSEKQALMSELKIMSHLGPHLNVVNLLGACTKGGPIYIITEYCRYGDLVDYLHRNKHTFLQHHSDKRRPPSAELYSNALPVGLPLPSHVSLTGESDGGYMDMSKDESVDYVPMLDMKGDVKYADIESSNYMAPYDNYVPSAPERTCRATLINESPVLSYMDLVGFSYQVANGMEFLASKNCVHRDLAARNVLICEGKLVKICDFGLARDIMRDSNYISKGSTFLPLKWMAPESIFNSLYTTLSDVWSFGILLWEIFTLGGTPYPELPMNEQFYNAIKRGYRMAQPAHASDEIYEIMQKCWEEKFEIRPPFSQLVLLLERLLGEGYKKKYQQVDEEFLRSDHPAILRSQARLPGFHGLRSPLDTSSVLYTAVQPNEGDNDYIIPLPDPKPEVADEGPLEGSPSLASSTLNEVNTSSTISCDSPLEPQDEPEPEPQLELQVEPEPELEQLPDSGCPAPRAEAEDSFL
DAPK2, sequence (Q9UIK4 whole entry): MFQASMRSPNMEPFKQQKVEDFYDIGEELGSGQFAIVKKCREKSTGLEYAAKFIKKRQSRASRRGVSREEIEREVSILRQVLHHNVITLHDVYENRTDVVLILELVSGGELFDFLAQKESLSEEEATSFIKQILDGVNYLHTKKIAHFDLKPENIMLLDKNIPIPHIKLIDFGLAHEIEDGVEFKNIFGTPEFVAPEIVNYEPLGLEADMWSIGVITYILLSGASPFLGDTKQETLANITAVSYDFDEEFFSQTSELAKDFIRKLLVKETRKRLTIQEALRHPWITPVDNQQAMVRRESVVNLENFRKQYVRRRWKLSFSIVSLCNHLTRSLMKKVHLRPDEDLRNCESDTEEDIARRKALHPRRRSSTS
MAP3K11/MLK3, sequence (Q16584 whole entry): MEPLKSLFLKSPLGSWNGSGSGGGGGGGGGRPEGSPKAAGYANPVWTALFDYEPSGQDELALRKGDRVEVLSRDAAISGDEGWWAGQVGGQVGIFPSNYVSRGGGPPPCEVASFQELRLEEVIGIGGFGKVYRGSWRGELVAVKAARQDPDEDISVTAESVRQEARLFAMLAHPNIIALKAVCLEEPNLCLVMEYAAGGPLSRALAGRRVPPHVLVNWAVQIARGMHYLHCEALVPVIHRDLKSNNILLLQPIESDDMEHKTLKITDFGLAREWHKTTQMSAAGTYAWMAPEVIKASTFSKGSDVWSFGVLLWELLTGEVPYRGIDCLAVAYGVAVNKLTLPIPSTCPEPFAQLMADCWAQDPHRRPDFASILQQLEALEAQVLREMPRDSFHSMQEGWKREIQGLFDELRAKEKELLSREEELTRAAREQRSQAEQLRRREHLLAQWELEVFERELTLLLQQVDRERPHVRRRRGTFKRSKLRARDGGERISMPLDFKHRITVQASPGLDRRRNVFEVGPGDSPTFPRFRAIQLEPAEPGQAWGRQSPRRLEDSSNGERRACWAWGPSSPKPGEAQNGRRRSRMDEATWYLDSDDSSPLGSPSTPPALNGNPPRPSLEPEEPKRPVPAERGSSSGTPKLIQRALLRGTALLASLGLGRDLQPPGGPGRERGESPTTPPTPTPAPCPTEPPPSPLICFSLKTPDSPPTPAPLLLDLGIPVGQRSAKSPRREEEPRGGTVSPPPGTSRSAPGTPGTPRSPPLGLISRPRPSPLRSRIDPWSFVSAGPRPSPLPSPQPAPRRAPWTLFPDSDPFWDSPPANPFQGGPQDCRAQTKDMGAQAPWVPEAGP

## COc1ccc2[nH]c3c4[nH]c5ccc(OC)cc5c4c4c(c3c2c1)C(=O)NC4=O [GW296115]
[1]
  inhibition at 1 µM: 99.8%
[2]
  inhibition at 1 µM: 95.1%
[3]
  inhibition at 1 µM: 92.4%
[4]
  inhibition at 1 µM: 95.4%
[5]
  inhibition at 1 µM: 100%
[6]
  inhibition at 1 µM: 96.7%
[7]
  inhibition at 1 µM: 94.1%
[8]
  inhibition at 1 µM: 97.7%
[9]
  inhibition at 1 µM: 94.7%
[10]
  inhibition at 1 µM: 96%
[11]
  inhibition at 1 µM: 100%
[12]
  Nanosyn % Inhibition at 1 μM: 95%
